# According to patent publication US20040109832A1, “Di-substituted resorcinols as skin lightening agents” (Unilever Home & Personal Care USA, Division Of Conopco, Inc., priority 2002, published 2004):
# System: T1, mushroom tyrosinase
# T1 construct: mushroom tyrosinase (Sigma T-7755)
# Test: Mushroom Tyrosinase Assay
# Assay type: biochemical
# Settings: for skin lightening effectiveness (tyrosinase inhibition), in words: conclusion from Tables 8 and 9; for Percent of Control: slope ΔAbs 475 nm/min vs ethanol control; for IC50: L-DOPA substrate, absorbency at 475 nm, pH 7.0, read-out: IC50 (skin lightener concentration that results in 50% tyrosinase inhibition relative to the control)
# Procedure: Mushroom tyrosinase inhibition is indicative of reduction in melanin synthesis, thereby showing skin lightening effect. […] Following an initial measurement of background absorbency at 475-nm, 20 microliters of mushroom tyrosinase (Sigma T-7755; 6050 units/ml) was added and incubated at room temperature. Absorbency is read at 475-nm over the following time points: 0, 2, 4, and 6.5 minutes. The data is plotted as 475-nm absorbency vs. time (minutes) and the slope of the line is calculated (ΔAbs 475 nm/ min).
# [1] = Table 9, Concentration 1 micro M
# [2] = Table 9, Concentration 10 micro M
# [3] = Table 9, Concentration 50 micro M
# [4] = Table 9, Concentration 100 micro M
% of Control (Melanin Synthesis) [1],% of Control (Melanin Synthesis) [2],% of Control (Melanin Synthesis) [3],% of Control (Melanin Synthesis) [4],"skin lightening effectiveness (tyrosinase inhibition), in words",Percent of Control (Concentration 0.0156 micro M),Percent of Control (Concentration 0.0312 micro M),Percent of Control (Concentration 0.0625 micro M),Percent of Control (Concentration 0.125 micro M),Percent of Control (Concentration 0.25 micro M),Percent of Control (Concentration 0.5 micro M),Percent of Control (Concentration 1 micro M),Percent of Control (Concentration 10 micro M),Percent of Control (Concentration 50 micro M),Percent of Control (Concentration 100 micro M),IC50,"skin lightening effectiveness (tyrosinase inhibition), in words (listed as 4,6-di-Isopropyl resorcinols)",Structure (SMILES)
98 % of Control,98 % of Control,100 % of Control,100 % of Control,no activity,–,–,–,–,–,–,–,–,–,–,–,–,"Oc1cccc(O)c1 [Resorcinol, resorcinol]"
27 % of Control,29 % of Control,29 % of Control,30 % of Control,effective skin lightening compounds,80.6% of Control,60.9% of Control,46.6% of Control,35.8% of Control,30.4% of Control,28.7% of Control,26.9% of Control,28.7% of Control,28.7% of Control,30.4% of Control,~0.05 µM,–,"CC(C)c1ccc(O)cc1O [4-Isopropyl Resorcinol, 4-isopropyl resorcinol]"

# Further lines, the compound ahead of its results:
Structure (SMILES),% of Control (Melanin Synthesis) [1],% of Control (Melanin Synthesis) [2],% of Control (Melanin Synthesis) [3],% of Control (Melanin Synthesis) [4],"skin lightening effectiveness (tyrosinase inhibition), in words",Percent of Control (Concentration 0.0156 micro M),Percent of Control (Concentration 0.0312 micro M),Percent of Control (Concentration 0.0625 micro M),Percent of Control (Concentration 0.125 micro M),Percent of Control (Concentration 0.25 micro M),Percent of Control (Concentration 0.5 micro M),Percent of Control (Concentration 1 micro M),Percent of Control (Concentration 10 micro M),Percent of Control (Concentration 50 micro M),Percent of Control (Concentration 100 micro M),IC50,"skin lightening effectiveness (tyrosinase inhibition), in words (listed as 4,6-di-Isopropyl resorcinols)"
"CCc1ccc(O)cc1O [4-Ethyl Resorcinol, 4-ethyl resorcinol]",32 % of Control,25 % of Control,21 % of Control,18 % of Control,–,86% of Control,82% of Control,72% of Control,64% of Control,57% of Control,43% of Control,32% of Control,25% of Control,21% of Control,18% of Control,0.35 µM,–
"Cc1cc(O)cc(O)c1C [4,5-di-Methyl Resorcinol, 4,5-dimethyl resorcinol]",95 % of Control,51 % of Control,35 % of Control,15 % of Control,not as effective,–,–,–,–,–,–,–,–,–,–,–,–
"CC(C)c1cc(C(C)C)c(O)cc1O [4,6-Diisopropyl Resorcinol, 4,6-di-isopropyl resorcinol]",48 % of Control,29 % of Control,34 % of Control,39 % of Control,comparable to 4-Ethyl Resorcinol,96.7% of Control,94.9% of Control,93.1% of Control,86.0% of Control,75.2% of Control,60.9% of Control,48.4% of Control,28.7% of Control,34.0% of Control,39.4% of Control,0.75 µM,effective skin lightening compounds
